According to patent publication US20210188775A1, “CARBOXAMIDE AND SULFONAMIDE DERIVATIVES USEFUL AS TEAD MODULATORS” (Genentech, Inc., priority 2018, published 2021):

What was measured:
TEAD2 = TEAD2 (Homo sapiens, UniProt Q15562); assay: TEAD lipid assay (Lipid FP, Bodipy-C16 probe displacement); assay type: binding; conditions: fluorescence polarization, His-tagged TEAD, 60 minutes incubation
Method: (§1) A TEAD lipid assay was done according to the following method. His-tagged TEAD proteins were pre-incubated with a Bodipy-C16 FP probe (Life Technologies Cat #D3821) for 30 minutes at room temperature to pre-form TEAD-probe complex. […] Duplicate 10 point dose response curves were generated for each test compound. The potency of compounds as TEAD lipid pocket binders was determined by IC50 value generated using a non-linear 4 parameter curve fit.

TEAD3 = TEAD3 (Homo sapiens, UniProt Q99594); assay: as above; assay type: binding; conditions: fluorescence polarization, His-tagged TEAD, 60 minutes incubation
Sequence of TEAD3 (Q99594 whole entry, species assumed): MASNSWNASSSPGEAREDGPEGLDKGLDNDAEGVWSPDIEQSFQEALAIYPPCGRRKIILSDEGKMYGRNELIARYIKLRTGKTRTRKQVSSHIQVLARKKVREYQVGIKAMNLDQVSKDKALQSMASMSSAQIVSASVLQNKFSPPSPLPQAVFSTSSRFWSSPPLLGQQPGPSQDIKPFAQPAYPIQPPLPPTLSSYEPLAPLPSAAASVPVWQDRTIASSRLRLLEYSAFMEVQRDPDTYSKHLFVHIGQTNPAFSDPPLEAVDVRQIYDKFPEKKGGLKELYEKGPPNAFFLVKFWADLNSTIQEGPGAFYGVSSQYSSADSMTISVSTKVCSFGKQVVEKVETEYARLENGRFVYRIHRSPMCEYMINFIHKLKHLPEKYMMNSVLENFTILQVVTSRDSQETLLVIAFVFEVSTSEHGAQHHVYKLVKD
Method: as §1

Sequence of TEAD2 (Q15562 whole entry, species assumed): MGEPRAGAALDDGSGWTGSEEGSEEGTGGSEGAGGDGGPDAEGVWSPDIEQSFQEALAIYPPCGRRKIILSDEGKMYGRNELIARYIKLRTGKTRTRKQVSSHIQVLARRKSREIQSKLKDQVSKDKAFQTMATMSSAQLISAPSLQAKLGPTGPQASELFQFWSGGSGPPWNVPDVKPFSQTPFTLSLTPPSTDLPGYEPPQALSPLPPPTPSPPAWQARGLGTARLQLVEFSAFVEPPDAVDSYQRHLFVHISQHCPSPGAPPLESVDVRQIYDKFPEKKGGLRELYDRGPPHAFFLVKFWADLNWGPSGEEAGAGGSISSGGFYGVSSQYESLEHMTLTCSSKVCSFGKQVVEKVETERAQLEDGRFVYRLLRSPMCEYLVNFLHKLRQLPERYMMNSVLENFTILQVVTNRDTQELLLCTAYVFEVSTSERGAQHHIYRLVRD

SMILES	IC50 (TEAD2)	IC50 (TEAD3)
COc1ccc(C(N)=O)cc1/C=C/C1CCCCC1 [Compound 31, 3-[(E)-2-cyclohexylvinyl]-4-methoxy-benzamide]	0.78 µM	0.97 µM
COc1ccc(NS(C)(=O)=O)cc1/C=C/C1CCC(C)CC1 (single isomer, unassigned) [Compound 6A, (E)-N-(4-Methoxy-3-(2-(4-methylcyclohexyl)vinyl)phenyl) methanesulfonamide]	0.96 µM	1.7 µM
COc1ncc(NS(C)(=O)=O)cc1/C=C/C1CC2(CC2)C1 [Compound 17, N-[6-methoxy-5-[(E)-2-spiro[2.3]hexan-5-ylvinyl]-3-pyridyl]methanesulfonamide]	0.81 µM	1.8 µM
COc1ccc(NS(C)(=O)=O)cc1/C=C/CC1CCCCC1 [Compound 4, N-[3-[(E)-3-cyclohexylprop-1-enyl]-4-methoxy-phenyl]methanesulfonamide]	0.96 µM	1.3 µM
COc1ncc(NS(C)(=O)=O)cc1/C=C/CC(C)C [Compound 15, N-[6-methoxy-5-[(E)-4-methylpent-1-enyl]-3-pyridyl]methanesulfonamide]	1.2 µM	2 µM
CC[C@H](CO)NC(=O)c1cnc(OC)c(/C=C/C2CCC(F)(F)CC2)c1 (racemic) [Compound 35, 6-methoxy-5-[rac-(E)-2-(4,4-difluorocyclohexyl)vinyl]-N-[rac-(1R)-1-(hydroxymethyl)propyl]pyridine-3-carboxamide]	1.9 µM	1.4 µM
COc1ccc(NS(C)(=O)=O)cc1/C=C/C1CCC(F)(F)CC1 [Compound 2, N-[3-[(E)-2-(4,4-difluorocyclohexyl)vinyl]-4-methoxy-phenyl]methanesulfonamide]	1 µM	1.5 µM
COc1ncc(NS(C)(=O)=O)cc1/C=C/C1CCC(F)(F)CC1 [Compound 14, N-[5-[(E)-2-(4,4-difluorocyclohexyl)vinyl]-6-methoxy-3-pyridyl]methanesulfonamide]	0.38 µM	0.43 µM
COc1ccc(C(=O)NC(C)C)cc1[C@H]1C[C@H](c2ccc(Cl)cc2)C1 (single isomer, unassigned) [Compound 9A]	0.78 µM	1.6 µM
COc1ccc(NS(C)(=O)=O)cc1C1CC1C1CCCCC1 (single isomer, unassigned) [Compound 1B, N-(3-(2-Cyclohexylcyclopropyl)-4-methoxyphenyl)methanesulfonamide]	1 µM	1.8 µM
COc1cc(F)c(NS(=O)(=O)C2CC2)cc1/C=C/c1ccc(Cl)cc1 [Compound 10, N-[5-[(E)-2-(4-chlorophenyl)vinyl]-2-fluoro-4-methoxy-phenyl]cyclopropanesulfonamide]	1.1 µM	1.9 µM
COc1cnc(NS(C)(=O)=O)cc1/C=C/C1(F)CCC(C(F)(F)F)CC1 (stereo not shown) [Compound 21, N-[4-[(E)-2-[1-fluoro-4-(trifluoromethyl)cyclohexyl]vinyl]-5-methoxy-2-pyridyl]methanesulfonamide]	0.86 µM	0.63 µM
COc1ccc(NS(C)(=O)=O)cc1/C=C/C1CCC(C)(C)CC1 [Compound 5, N-[3-[(E)-2-(4,4-dimethylcyclohexyl)vinyl]-4-methoxy-phenyl]methanesulfonamide]	0.6 µM	0.77 µM
COc1ncc(NS(C)(=O)=O)cc1/C=C/C1CC(C(F)(F)F)C1 (racemic) [Compound 37, N-[6-methoxy-5-[rac-(E)-2-[3-(trifluoromethyl)cyclobutyl]vinyl]-3-pyridyl]methanesulfonamide]	0.75 µM	1.3 µM
COc1ccc(C(=O)NC(C)C)cc1-c1ccc(C2CC2)cc1 [Compound 26, 3-(4-cyclopropylphenyl)-N-isopropyl-4-methoxy-benzamide]	2 µM	1.7 µM
COc1cnc(NS(C)(=O)=O)cc1/C=C/C1(F)CCC(F)(F)CC1 [Compound 20, N-[5-methoxy-4-[(E)-2-(1,4,4-trifluorocyclohexyl)vinyl]-2-pyridyl]methanesulfonamide]	2 µM	0.76 µM
COc1ccc(NS(C)(=O)=O)cc1/C=C/C1CCCCC1 [Compound 27, N-[3-[(E)-2-cyclohexylvinyl]-4-methoxy-phenyl]methanesulfonamide]	1 µM	1.2 µM
COc1ncc(NS(C)(=O)=O)cc1C1CC(c2ccc(Cl)cc2)C1 (stereo not shown) [Compound 13, N-[5-[3-(4-chlorophenyl)cyclobutyl]-6-methoxy-3-pyridyl]methanesulfonamide]	0.73 µM	1.8 µM
Cc1cn(Cc2ccc(Cl)cc2)c2cc(NS(C)(=O)=O)ccc12 [Compound 22, N-[1-[(4-chlorophenyl)methyl]-3-methyl-indol-6-yl]methanesulfonamide]	0.93 µM	1.3 µM
COc1ccc(NS(C)(=O)=O)cc1[C@H]1C[C@H](c2ccc(Cl)cc2)C1 (single isomer, unassigned) [Compound 7A]	0.91 µM	1.7 µM
COc1cc(F)c(NS(=O)(=O)C2CC2)cc1-c1ccc(C(C)C)cc1 [Compound 11, N-[2-fluoro-5-(4-isopropylphenyl)-4-methoxy-phenyl]cyclopropanesulfonamide]	0.56 µM	0.63 µM
COc1ncc(NS(C)(=O)=O)cc1/C=C/C1CC(C)(C)C1 [Compound 36, N-[5-[(E)-2-(3,3-dimethylcyclobutyl)vinyl]-6-methoxy-3-pyridyl]methanesulfonamide]	0.95 µM	1.4 µM
COc1ccc(NS(=O)(=O)C2CC2)cc1/C=C/Cc1ccccc1 [Compound 33, N-[4-methoxy-3-[(E)-3-phenylprop-1-enyl]phenyl]cyclopropanesulfonamide]	0.84 µM	1.2 µM
Cn1cc(Cc2ccc(Cl)cc2)c2cc(NS(C)(=O)=O)ccc21 [Compound 24, N-[3-[(4-chlorophenyl)methyl]-1-methyl-indol-5-yl]methanesulfonamide]	0.36 µM	0.78 µM
COc1ccc(NS(C)(=O)=O)cc1[C@H]1C[C@H](c2cccc(F)c2)C1 (single isomer, unassigned) [Compound 8A]	0.74 µM	1.4 µM
Cc1cn(Cc2ccc(Cl)cc2)c2cc(NS(=O)(=O)C3CC3)ccc12 [Compound 23, N-[1-[(4-chlorophenyl)methyl]-3-methyl-indol-6-yl]cyclopropanesulfonamide]	1.2 µM	0.83 µM

Second part, the molecule after the results:

IC50 (TEAD2)	IC50 (TEAD3)	SMILES
1.6 µM	13 µM	CS(=O)(=O)Nc1cnc(C2CC2)c(/C=C/C2CCC(F)(F)CC2)c1 [Compound 52, N-[6-cyclopropyl-5-[(E)-2-(4,4-difluorocyclohexyl)vinyl]-3-pyridyl]methanesulfonamide]
0.83 µM	0.7 µM	CC[C@H](CO)NC(=O)c1cc(/C=C/C2CC3(CC3)C2)c(OC)cn1 [Compound 44, (E)-N-(1-hydroxybutan-2-yl)-5-methoxy-4-(2-(spiro[2.3]hexan-5-yl)vinyl)picolinamide]
0.64 µM	0.65 µM	COc1nc(F)c(NS(C)(=O)=O)cc1/C=C/CC1CCCC1 [Compound 40, N-[5-[(E)-3-cyclopentylprop-1-enyl]-2-fluoro-6-methoxy-3-pyridyl]methanesulfonamide]
1.1 µM	2 µM	COc1nc(F)c(NS(C)(=O)=O)cc1/C=C/C1CCCCC1 [Compound 38, N-[5-[(E)-2-cyclohexylvinyl]-2-fluoro-6-methoxy-3-pyridyl]methanesulfonamide]
1.8 µM	0.86 µM	CC[C@H](CO)NC(=O)c1cc(/C=C/C2CC3(CC3)C2)c(OC)nn1 [Compound 47, (E)-N-(1-hydroxybutan-2-yl)-6-methoxy-5-(2-(spiro[2.3]hexan-5-yl)vinyl)pyridazine-3-carboxamide]
0.53 µM	0.78 µM	CC[C@H](CO)NC(=O)c1cc(/C=C/[C@H]2CC[C@H](C(F)(F)F)CC2)c(OC)cn1 [Compound 42, (E)-N-(1-hydroxybutan-2-yl)-5-methoxy-4-(2-(4-(trifluoromethyl)cyclohexyl)vinyl) picolinamide]
0.96 µM	2 µM	COc1ccc(C(=O)NC(C)CCO)cc1/C=C/c1ccc(Cl)cc1 (single isomer, unassigned) [Compound 51, 3-[(E)-2-(4-chlorophenyl)vinyl]-N-(3-hydroxy-1-methyl-propyl)-4-methoxy-benzamide]
0.55 µM	0.97 µM	COc1nc(F)c(NS(C)(=O)=O)cc1/C=C/C1CCC(F)(F)CC1 [Compound 39, N-[5-[(E)-2-(4,4-difluorocyclohexyl)vinyl]-2-fluoro-6-methoxy-3-pyridyl]methanesulfonamide]
1.6 µM	1.7 µM	COc1nnc(NS(C)(=O)=O)cc1/C=C/C1CCC(C(F)(F)F)CC1 (stereo not shown) [Compound 45, (E)-N-(6-methoxy-5-(2-(4-(trifluoromethyl)cyclohexyl)vinyl)pyridazin-3-yl)methanesulfonamide]
1.6 µM	1.6 µM	CC[C@H](CO)NC(=O)c1cc(/C=C/[C@H]2CC[C@H](C(F)(F)F)CC2)c(OC)nn1 [Compound 46, (E)-N-(1-hydroxybutan-2-yl)-6-methoxy-5-(2-(4-(trifluoromethyl)cyclohexyl)vinyl) pyridazine-3-carboxamide]
1.3 µM	1.1 µM	COc1ncc(NS(=O)(=O)CC(C)(C)C#N)cc1/C=C/C1CCC(F)(F)CC1 [Compound 50, 2-cyano-N-[5-[(E)-2-(4,4-difluorocyclohexyl)vinyl]-6-methoxy-3-pyridyl]-2-methyl-propane-1-sulfonamide]
0.75 µM	1.9 µM	COc1ccc(NS(=O)(=O)C2CC2)cc1/C=C/c1ccc(Cl)cc1 [Compound 49, N-[3-[(E)-2-(4-chlorophenyl)vinyl]-4-methoxy-phenyl]cyclopropanesulfonamide]
